Patent publication US9926293B2, “Multivalent RAS binding compounds” (THE TRUSTEES OF COLUMBIA UNIVERSITY IN THE CITY OF NEW YORK, priority 2014, dated 2018)

Legend:
KRAS^G12D⋅BODIPY-GTP = target: T1, KRAS^G12D⋅BODIPY-GTP (Homo sapiens, UniProt P01116, G12D); test: Nucleotide displacement assay with BODIPY-GTP (fluorescence polarization); type: binding; conditions: 2.5 μM KRAS^G12D⋅BODIPY-GTP, 12 hours
T1 construct: made in house; host or cells: Escherichia coli BL21-Gold (DE3)
Method: Nucleotide Displacement Assay
To investigate whether compounds were binding to the same site as GTP, a fluorescent polarization assay was implemented using fluorescently-labeled BODIPY-GTP as a probe. When BODIPY-GTP is free in solution, it has a low polarization. However, when BODIPY-GTP is bound to K-Ras protein, the polarization intensity is high. K-Ras G12D bound to BODIPY-GTP was incubated with different concentrations of ligand or unlabeled GTP or GDP in buffer containing 25 mM Tris-HCl, pH 8, 100 mM NaCl, 5 mM MgCl2, 1 mM EDTA, and 1 mM TCEP. The final concentration of K-Ras G12D bound to BODIPY-GTP in each well was 2.5 μM. The samples were incubated at 25° C. for 12 hours with gentle shaking to allow for the slow intrinsic nucleotide release reaction to take place. The change in fluorescence was measured on a Victor3 plate reader (Perkin Elmer) in 384-well black low-volume plates (Corning, Inc.). The BODIPY-GTP fluorophore was excited at 485 nm and emission was monitored at 535 nm.

GppNHp-loaded KRASG12D = target: T2, GppNHp-loaded KRASG12D (Homo sapiens, UniProt P01116, G12D); test: Microscale thermophoresis, lysine NT-647-labeled GppNHp-loaded KRAS^G12D; type: binding; conditions: MST, GppNHp-bound KRAS^G12D, Table 6; read-out: KD
T2 construct: made in house; host or cells: Escherichia coli BL21-Gold (DE3)
Method: Microscale Thermophoresis
KRAS^G12D (250 μM) in 25 mM HEPES, 100 mM sodium chloride, 2 mM TCEP with 20 mM EDTA and 1 mM GppNHp was shaken at 220 rpm at 30° C. to remove the endogenous nucleotide, The solution was placed on ice for 2 minutes prior to the addition of 65 mM MgCl2. After an additional 10 minutes incubation on ice, 200 uL of a 10 uM solution of KRAS^G12D was combined with 200 uL of a 20 uM solution of NT-647-NHS-ester dye (from a 652.4 μM stock). The protein/dye mixture was rotated at 4° C. for 30 minutes, before being separated from the excess dye and buffer exchanged into 25 mM Tris, 100 mM sodium chloride, 2 mM TCEP, and 5 mM MgCl2 via a nap-5 column. The test compounds were arrayed across a 16-point dilution series consisting of 1.5% DMSO with 25 mM Tris, 100 mM NaCl, 2 mM TCEP, 5 mM MgCl2 and 0.05% tween-20. Thermophoretic movement of the fluorescently labeled protein with the inhibitors was performed using a Monolith NT.115 (Nanotemper Technologies). RALA and RHOA were purchased commercially from Abcam (RALA CN:ab102555, RHOA CN:ab101594).
In another set of experiments, the top D38-A59 two-site multivalent compounds were evaluated by a RAS pulldown using the RAS binding domain of CRAF (the top two hits are shown in FIG. 14D). This abrogation of binding between RAS and its effector protein was also evident in the RAS-RALGDS interaction (FIG. 14E). To quantify the binding of the two-site compounds to RAS, MST was performed again using lysine NT-647-labeled, GppNHp-loaded KRAS^G12D. […] The third (Y32) site was extended into (compound 34MEW95) using this scaffold.
Docking scores and dissociation constants for binding to GppNHp-bound KRAS^G12D (PDB:4DSN) were measured as set forth above for additional 2- and 3-site compounds by microscale thermophoresis.

[1] = tested on: Mouse embryonic fibroblasts (MEFs), null Hras and Nras, floxed Kras; test: Growth inhibition of MEFs with floxed Kras locus; type: cell-based; conditions: 600 nM, 6 days, vs DMSO
Method: In parallel, cells were treated with DMSO or 4OHT at 600 nM for 6 days. […] Cells were then lysed and treated with a pro-fluorescent caspase 3/7 substrate (rhodamine 110 bis-N-CBZ-L-aspartyl-L-gluramyl-L-valyl-aspartic acid amide) for 16 hours and measured.
All cell culture assays were incubated at 37° C., 5% CO2 in media containing Dulbecco's Modified Eagle Medium (DMEM) with 10% fetal bovine serum (FBS) and 1% penicillin-streptomycin (PS). 384-well format for EC50 determination: cells were trypsinized, counted, and seeded into 384-well plates at 1,000 cells/well. After 12-16 hours, compounds (as 50 mM stocks in DMSO) were arrayed in an 8- or 16-point dilution series in 384-well polypropylene plates. Compound solutions were transferred at a 1:5 dilution into the assay plates. After 48 hours, a 50% Alamar blue solution was added to a final concentration of 10% Alamar blue. After 6 hours of incubation, fluorescence intensity was determined using a Victor3 plate reader (Perkin Elmer) with a 535 nm excitation filter and a 590 nm emission filter. All compound measurements were performed in triplicate. For experiments performed in 6-well format, cells were trypsinized, counted, and seeded into 6-well plates at 200,000 cells per well 16 h prior to use. […] After 24 hours, cells were trypsinized and viability was determined using Trypan Blue exclusion assay. […]

Microsomal stability = type: in vitro ADME; conditions: pH 7.4; mouse liver microsomes, 0.5 μM
Method: Test compounds (0.5 μM) were incubated at 37° C. for up to 45 minutes in 50 mM of potassium phosphate buffer (pH 7.4) containing microsomal protein (0.5 mg/mL) and an NADPH generating system (0.34 mg/mL β-nicotinamide adenine dinucleotide phosphate (NADP), 1.56 mg/mL glucose-6-phosphate, 1.2 units/mL glucose-6-phosphate dehydrogenase). At 0, 5, 15, 30 and 45 minute intervals an aliquot was taken and quenched with acetonitrile (ACN) containing an internal standard. No-cofactor controls at 45 minutes were prepared. Following completion of the experimentation, the samples were analyzed by LC-MS/MS using a Shimadzu HPLC and an Applied Biosystem AP 14000.

[2] = tested on: caspases 3 and 7 in HT-1080 (NRAS^Q61K) cells; test: Caspase 3/7 activation assay; type: cell-based; conditions: staurosporine 5 μM, 24 hours
Method: Caspase 3/7 Activation Assay
HT-1080 cells were seeded into 384-well plates at 1,000 cells/well. After 12-16 hours, compounds (as 50 mM stocks in DMSO) were arrayed in a dilution series in 384-well polypropylene plates. Compound solutions were transferred at a 1:5 dilution into the assay plates for a total volume of 40 μL. After 24 hours, 8 μL of a 1:100 solution of rhodamine 110 bis-(N-CBZ-1-aspartyl-1-glutamyl-1-valyl-aspartic acid amide) to lysis buffer (APO-1, Promega) was added and the plate was wrapped in aluminum foil and incubated at room temperature for 16 hours. Fluorescence intensity was then determined using a Victor3 plate reader (Perkin Elmer) with a 490 nm excitation filter and a 535 nm emission filter. A viability curve was performed in parallel with the same incubation time using the procedure described in the “cell viability assays” section.

T2 sequence (P01116 1-169 isoform P01116-2 G12D): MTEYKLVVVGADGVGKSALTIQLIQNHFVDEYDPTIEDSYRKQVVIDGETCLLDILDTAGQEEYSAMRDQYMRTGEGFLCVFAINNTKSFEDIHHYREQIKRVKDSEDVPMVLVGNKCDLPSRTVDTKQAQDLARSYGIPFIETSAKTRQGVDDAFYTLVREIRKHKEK
T1 sequence (P01116 1-169 isoform P01116-2 G12D): as above

| Compound | Kd (GppNHp-loaded KRASG12D) | also measured |
| --- | --- | --- |
| Nc1nc2c(ncn2[C@@H]2O[C@H](COP(=O)(O)OP(=O)(O)OP(=O)(O)O)[C@@H](O)[C@H]2O)c(=O)[nH]1 [GTP] |  | displacement of BODIPY-GTP (KRAS^G12D⋅BODIPY-GTP): can displace |
| COc1ccccc1-c1cn(CCCNC(=O)C2(N)CCNCC2)c2cccc(CN3CCN(CCOc4ccc(Cl)cc4)CC3)c12 [Compound 34MEW45, 4-amino-N-(3-(4-((4-(2-(4-chlorophenoxy)ethyl)piperazin-1-yl)methyl)-3-(2-methoxyphenyl)-1H-indol-1-yl)propyl)piperidine-4-carboxamide] | 1350 µM |  |
| COc1cc(CN2CCN(Cc3ccc4c(c3)c(-c3ccc(OC)cc3OC)cn4CCCNC(=O)C3CNCCN3)CC2)cc(OC)c1 (stereo not shown) [Compound 36MEW3, N-(3-(5-((4-(3,5-dimethoxybenzyl)piperazin-1-yl)methyl)-3-(2,4-dimethoxyphenyl)-1H-indol-1-yl)propyl)piperazine-2-carboxamide] | 230 µM |  |
| Nc1nc2c(ncn2[C@@H]2O[C@H](COP(=O)(O)OP(=O)(O)O)[C@@H](O)[C@H]2O)c(=O)[nH]1 [GDP] |  | displacement of BODIPY-GTP (KRAS^G12D⋅BODIPY-GTP): can displace |
| COc1cc(COc2ccc(CNC3(C(=O)NCCCn4cc(-c5ccc(OC(F)(F)F)cc5)c5cc(CN6CCN(Cc7c(Cl)cccc7Cl)CC6)ccc54)CCNCC3)cc2OC)cc(OC)c1 [Compound 43MEW63] | 26 µM |  |
| O=C(NCCCn1cc(-c2cccc(F)c2)c2c(CN3CCN(CCOc4ccc(Cl)cc4)CC3)cccc21)C1(NCc2ccc(OCc3ccc(F)cc3)c(Cl)c2)CCNCC1 [Compound 35MEW12, 4-((3-chloro-4-((4-fluorobenzyl)oxy)benzyl)amino)-N-(3-(4-((4-(2-(4-chlorophenoxy)ethyl)piperazin-1-yl)methyl)-3-(3-fluorophenyl)-1H-indol-1-yl)propyl)piperidine-4-carboxamide] | 36 µM |  |
| O=C(NCCCn1cc(-c2ccc(OC(F)(F)F)cc2)c2cc(CN3CCN(Cc4c(Cl)cccc4Cl)CC3)ccc21)C1(NCc2ccc(OCc3cc(C(F)(F)F)cc(C(F)(F)F)c3)cc2)CCNCC1 [Compound 43MEW65, 4-((4-((3,5-bis(trifluoromethyl)benzyl)oxy)benzyl)amino)-N-(3-(5-((4-(2,6-dichlorobenzyl)piperazin-1-yl)methyl)-3-(4-(trifluoromethoxy)phenyl)-1H-indol-1-yl)propyl)piperidine-4-carboxamide] | 7.9 µM |  |
| 4-hydroxytamoxifen [Compound 4OHT, reference compound] |  | growth inhibition [1]: 91% |
| O=C(NCCCn1cc(-c2c(C(F)(F)F)cccc2C(F)(F)F)c2cc(CN3CCN(Cc4cc(C(F)(F)F)cc(C(F)(F)F)c4)CC3)ccc21)C1CNCCN1 (stereo not shown) [Compound 32MEW56, N-(3-(5-((4-(3,5-bis(trifluoromethyl)benzyl)piperazin-1-yl)methyl)-3-(2,6-bis(trifluoromethyl)phenyl)-1H-indol-1-yl)propyl)piperazine-2-carboxamide] | > 10000 µM |  |
| CCOc1ccc2ccc(=O)oc2c1 [7-ethoxycoumarin, reference compound] |  | half-life at 0.5 μM (Microsomal stability): 3.9 min |
| CC(C)Oc1ccccc1-c1ccc(CNC2(C(=O)NCCCn3cc(-c4ccc(OC(F)(F)F)cc4)c4cc(CN5CCN(Cc6c(Cl)cccc6Cl)CC5)ccc43)CCNCC2)nc1 [Compound 43MEW73, N-(3-(5-((4-(2,6-dichlorobenzyl)piperazin-1-yl)methyl)-3-(4-(trifluoromethoxy)phenyl)-1H-indol-1-yl)propyl)-4-(((5-(2-isopropoxyphenyl)pyridin-2-yl)methyl)amino)piperidine-4-carboxamide] | 24 µM |  |
| CN[C@@H]1C[C@H]2O[C@@](C)([C@@H]1OC)n1c3ccccc3c3c4c(c5c6ccccc6n2c5c31)C(=O)NC4 [staurosporine, reference compound] |  | fluorescence of caspase 3/7 substrate ([2]; 31MEW44 5 μM, 34MEW43 10 μM, 34MEW95 5 μM): Increased fluorescence; fluorescence of caspase 3/7 substrate ([2]; 31MEW44 2.5 and 5 μM): Increased fluorescence |
